Measurements taken from ChEMBL document CHEMBL5291721, “A preclinical secondary pharmacology resource illuminates target-adverse drug reaction associations of marketed drugs” (Nat Commun, 2023).

How the values were obtained:
[1] = target: T1, Alpha-2A adrenergic receptor (Homo sapiens, UniProt P08913); type: functional, cell-based
T1 sequence (P08913 whole entry): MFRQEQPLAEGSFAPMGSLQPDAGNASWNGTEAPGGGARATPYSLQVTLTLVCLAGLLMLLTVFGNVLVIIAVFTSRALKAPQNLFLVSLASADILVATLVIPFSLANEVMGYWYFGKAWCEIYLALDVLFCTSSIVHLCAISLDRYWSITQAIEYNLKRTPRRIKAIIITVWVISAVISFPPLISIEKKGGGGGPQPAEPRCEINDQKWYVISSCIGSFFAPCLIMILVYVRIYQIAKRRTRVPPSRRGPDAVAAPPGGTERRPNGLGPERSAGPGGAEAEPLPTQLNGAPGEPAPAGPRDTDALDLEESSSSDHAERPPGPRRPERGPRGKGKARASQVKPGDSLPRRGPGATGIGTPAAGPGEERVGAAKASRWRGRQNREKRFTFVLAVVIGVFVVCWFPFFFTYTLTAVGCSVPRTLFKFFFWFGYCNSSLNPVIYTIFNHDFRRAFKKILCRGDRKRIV

[2] = target: cGMP-inhibited 3',5'-cyclic phosphodiesterase 3A (Homo sapiens, UniProt Q14432); type: functional
Sequence of cGMP-inhibited 3',5'-cyclic phosphodiesterase 3A (Q14432 whole entry): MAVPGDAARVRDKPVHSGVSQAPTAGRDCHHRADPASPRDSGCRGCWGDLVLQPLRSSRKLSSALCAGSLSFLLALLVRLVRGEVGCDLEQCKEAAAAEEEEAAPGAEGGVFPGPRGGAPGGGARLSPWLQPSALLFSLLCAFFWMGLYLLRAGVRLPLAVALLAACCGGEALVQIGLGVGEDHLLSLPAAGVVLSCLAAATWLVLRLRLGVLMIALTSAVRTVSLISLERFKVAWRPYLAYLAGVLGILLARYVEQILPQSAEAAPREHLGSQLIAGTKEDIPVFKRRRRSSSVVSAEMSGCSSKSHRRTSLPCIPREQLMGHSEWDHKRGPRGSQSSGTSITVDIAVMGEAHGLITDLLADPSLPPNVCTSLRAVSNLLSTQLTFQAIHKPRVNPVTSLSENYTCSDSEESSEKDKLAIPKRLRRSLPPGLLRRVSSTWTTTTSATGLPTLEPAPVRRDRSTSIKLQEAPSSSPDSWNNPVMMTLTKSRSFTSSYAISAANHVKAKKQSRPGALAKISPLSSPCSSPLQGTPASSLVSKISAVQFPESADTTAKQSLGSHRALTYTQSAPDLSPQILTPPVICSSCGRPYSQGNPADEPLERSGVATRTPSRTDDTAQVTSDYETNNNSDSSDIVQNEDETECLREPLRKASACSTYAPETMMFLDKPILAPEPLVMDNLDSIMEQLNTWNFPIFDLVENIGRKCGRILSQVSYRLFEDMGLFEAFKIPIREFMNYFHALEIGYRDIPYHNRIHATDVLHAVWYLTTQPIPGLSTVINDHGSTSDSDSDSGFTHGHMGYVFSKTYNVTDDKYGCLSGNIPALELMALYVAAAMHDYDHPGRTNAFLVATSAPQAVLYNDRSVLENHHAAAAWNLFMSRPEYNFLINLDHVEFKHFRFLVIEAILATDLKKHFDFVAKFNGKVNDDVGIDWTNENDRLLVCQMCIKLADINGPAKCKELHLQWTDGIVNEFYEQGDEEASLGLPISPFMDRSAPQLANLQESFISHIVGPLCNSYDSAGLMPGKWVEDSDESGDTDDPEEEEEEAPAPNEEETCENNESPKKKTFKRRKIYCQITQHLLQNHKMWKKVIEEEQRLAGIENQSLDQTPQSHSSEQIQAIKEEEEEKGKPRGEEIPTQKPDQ

[3] = target: 5-hydroxytryptamine receptor 2B (Homo sapiens, UniProt P41595); type: functional, cell-based
Sequence of 5-hydroxytryptamine receptor 2B (P41595 whole entry): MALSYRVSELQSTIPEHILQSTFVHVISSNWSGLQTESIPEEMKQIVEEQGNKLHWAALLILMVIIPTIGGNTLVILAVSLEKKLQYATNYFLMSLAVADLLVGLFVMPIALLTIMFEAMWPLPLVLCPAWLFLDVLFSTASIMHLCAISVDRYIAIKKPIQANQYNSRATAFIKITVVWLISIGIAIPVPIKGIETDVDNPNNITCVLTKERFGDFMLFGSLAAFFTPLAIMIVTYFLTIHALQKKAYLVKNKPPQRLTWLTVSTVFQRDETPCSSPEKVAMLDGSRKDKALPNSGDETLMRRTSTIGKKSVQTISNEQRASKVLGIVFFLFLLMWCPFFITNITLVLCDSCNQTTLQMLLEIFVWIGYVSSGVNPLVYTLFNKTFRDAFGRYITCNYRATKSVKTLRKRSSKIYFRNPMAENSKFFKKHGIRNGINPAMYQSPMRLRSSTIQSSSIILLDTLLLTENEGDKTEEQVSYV

Vasopressin V1a receptor = Vasopressin V1a receptor (Homo sapiens, UniProt P37288)
Sequence of Vasopressin V1a receptor (P37288 whole entry): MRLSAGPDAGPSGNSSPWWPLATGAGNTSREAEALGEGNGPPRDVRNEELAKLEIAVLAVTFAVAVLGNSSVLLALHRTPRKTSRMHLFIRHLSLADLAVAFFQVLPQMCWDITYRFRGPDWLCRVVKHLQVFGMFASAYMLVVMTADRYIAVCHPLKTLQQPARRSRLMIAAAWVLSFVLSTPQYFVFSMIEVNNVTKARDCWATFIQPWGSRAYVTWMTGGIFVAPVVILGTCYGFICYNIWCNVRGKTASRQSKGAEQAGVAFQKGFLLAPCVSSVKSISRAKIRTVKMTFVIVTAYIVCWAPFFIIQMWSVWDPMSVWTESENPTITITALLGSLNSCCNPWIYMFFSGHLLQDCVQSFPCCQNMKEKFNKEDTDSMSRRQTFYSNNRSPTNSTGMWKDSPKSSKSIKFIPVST

[4] = target: Beta-1 adrenergic receptor (Homo sapiens, UniProt P08588); type: functional
Sequence of Beta-1 adrenergic receptor (P08588 whole entry): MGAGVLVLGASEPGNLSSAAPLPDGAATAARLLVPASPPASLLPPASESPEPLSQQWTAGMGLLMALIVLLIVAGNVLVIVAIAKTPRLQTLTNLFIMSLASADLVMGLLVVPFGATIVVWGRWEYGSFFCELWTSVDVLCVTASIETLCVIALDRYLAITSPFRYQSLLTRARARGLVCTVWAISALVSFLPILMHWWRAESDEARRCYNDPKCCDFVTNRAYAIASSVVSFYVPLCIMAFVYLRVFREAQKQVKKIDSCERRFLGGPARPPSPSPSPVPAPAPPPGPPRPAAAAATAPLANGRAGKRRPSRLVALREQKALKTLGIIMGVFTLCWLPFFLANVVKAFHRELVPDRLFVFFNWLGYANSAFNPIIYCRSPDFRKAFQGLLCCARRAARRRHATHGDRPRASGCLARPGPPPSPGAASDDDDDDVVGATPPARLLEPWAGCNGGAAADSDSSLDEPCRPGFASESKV

[5] = target: T2, 5-hydroxytryptamine receptor 1A (Homo sapiens, UniProt P08908); type: functional, cell-based
T2 sequence (P08908 whole entry): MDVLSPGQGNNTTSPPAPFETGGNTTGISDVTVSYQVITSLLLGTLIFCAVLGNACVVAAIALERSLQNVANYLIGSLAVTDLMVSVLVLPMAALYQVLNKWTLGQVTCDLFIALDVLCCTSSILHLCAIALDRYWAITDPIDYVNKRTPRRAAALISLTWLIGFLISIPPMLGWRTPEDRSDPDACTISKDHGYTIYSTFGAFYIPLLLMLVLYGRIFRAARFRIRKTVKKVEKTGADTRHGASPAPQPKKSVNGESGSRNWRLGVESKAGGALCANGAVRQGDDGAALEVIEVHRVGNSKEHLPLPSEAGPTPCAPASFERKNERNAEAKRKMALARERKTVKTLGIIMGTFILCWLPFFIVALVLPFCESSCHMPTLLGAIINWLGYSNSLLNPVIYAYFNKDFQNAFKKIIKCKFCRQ

[6] = target: Sodium-dependent serotonin transporter (Homo sapiens, UniProt P31645)
Sequence of Sodium-dependent serotonin transporter (P31645 whole entry): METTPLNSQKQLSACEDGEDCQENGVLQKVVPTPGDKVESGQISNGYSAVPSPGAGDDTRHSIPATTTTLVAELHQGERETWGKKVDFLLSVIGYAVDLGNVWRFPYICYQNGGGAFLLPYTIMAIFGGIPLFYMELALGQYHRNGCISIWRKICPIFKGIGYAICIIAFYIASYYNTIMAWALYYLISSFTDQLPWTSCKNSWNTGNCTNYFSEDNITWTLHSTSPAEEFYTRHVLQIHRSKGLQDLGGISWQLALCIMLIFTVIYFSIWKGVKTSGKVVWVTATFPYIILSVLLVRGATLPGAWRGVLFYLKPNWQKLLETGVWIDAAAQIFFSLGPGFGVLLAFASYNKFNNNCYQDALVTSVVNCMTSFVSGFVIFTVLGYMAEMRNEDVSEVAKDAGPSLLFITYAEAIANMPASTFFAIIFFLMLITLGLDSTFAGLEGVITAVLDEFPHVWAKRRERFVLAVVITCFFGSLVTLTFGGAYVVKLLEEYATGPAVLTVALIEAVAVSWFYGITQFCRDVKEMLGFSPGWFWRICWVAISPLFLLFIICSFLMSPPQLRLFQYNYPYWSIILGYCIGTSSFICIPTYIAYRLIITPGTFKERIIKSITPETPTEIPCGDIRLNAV

Vasopressin V2 receptor = Vasopressin V2 receptor (Homo sapiens, UniProt P30518)
Sequence of Vasopressin V2 receptor (P30518 whole entry): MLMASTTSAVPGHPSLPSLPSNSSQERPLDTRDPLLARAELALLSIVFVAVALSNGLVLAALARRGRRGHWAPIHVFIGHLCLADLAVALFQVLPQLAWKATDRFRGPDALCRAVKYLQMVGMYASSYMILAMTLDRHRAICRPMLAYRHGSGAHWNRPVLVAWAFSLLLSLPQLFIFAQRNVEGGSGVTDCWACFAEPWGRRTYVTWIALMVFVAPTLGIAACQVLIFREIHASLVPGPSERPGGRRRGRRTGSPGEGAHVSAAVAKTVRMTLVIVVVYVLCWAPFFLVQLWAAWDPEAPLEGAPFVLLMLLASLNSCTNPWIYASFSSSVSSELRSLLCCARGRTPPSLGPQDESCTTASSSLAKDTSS

B2 bradykinin receptor = target: T3, B2 bradykinin receptor (Homo sapiens, UniProt P30411)
T3 sequence (P30411 whole entry): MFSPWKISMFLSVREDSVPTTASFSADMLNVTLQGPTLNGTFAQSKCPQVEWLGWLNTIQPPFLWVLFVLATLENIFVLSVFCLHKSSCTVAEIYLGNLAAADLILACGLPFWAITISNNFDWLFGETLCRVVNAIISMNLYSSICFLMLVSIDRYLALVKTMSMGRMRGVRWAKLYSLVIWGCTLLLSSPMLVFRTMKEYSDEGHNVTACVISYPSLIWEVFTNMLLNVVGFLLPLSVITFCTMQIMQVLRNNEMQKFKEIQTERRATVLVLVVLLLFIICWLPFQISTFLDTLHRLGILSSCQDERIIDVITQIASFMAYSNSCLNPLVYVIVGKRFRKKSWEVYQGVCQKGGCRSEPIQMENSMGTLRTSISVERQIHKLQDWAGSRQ

Estrogen receptor = target: T4, Estrogen receptor (Homo sapiens, UniProt P03372)
T4 sequence (P03372 whole entry): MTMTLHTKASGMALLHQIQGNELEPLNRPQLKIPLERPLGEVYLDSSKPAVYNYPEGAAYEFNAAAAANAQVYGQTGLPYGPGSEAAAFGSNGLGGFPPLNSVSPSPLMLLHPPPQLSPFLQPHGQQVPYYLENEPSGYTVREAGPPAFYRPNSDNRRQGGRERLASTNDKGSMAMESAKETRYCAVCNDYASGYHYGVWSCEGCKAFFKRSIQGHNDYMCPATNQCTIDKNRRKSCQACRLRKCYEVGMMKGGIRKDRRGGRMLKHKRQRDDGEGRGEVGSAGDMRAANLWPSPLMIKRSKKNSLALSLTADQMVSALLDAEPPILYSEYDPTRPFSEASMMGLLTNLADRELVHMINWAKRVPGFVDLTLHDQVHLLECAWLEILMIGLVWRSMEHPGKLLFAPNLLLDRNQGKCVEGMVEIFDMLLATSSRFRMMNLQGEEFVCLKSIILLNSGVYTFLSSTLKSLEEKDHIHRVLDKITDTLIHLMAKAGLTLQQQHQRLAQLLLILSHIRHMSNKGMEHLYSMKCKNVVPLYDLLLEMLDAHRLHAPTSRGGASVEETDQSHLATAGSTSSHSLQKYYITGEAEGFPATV

Melanocortin receptor 4 = Melanocortin receptor 4 (Homo sapiens, UniProt P32245)
Sequence of Melanocortin receptor 4 (P32245 whole entry): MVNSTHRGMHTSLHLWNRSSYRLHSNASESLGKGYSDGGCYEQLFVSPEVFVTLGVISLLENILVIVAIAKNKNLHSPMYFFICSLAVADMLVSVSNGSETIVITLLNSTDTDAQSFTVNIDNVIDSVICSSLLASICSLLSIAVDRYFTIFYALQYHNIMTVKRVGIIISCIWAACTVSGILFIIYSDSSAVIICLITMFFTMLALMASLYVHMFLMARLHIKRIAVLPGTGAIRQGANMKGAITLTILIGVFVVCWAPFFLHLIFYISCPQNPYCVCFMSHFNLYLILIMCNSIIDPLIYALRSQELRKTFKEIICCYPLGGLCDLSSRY
Note: assay procedure not described here.

AC50 [1] | AC50 [2] | AC50 [3] | AC50 (Vasopressin V1a receptor) | AC50 [4] | AC50 [5] | AC50 (Vasopressin V2 receptor) | AC50 (B2 bradykinin receptor) | AC50 (Melanocortin receptor 4) | Compound | AC50 [6] | AC50 (Estrogen receptor)
 |  |  |  |  |  |  |  |  | CC(=O)NO [ACETOHYDROXAMIC ACID] | > 30 µM | 
> 30 µM | > 30 µM | > 30 µM | > 30 µM | > 30 µM | > 30 µM | > 30 µM | > 30 µM |  | CC(=O)Nc1ccc(CC(=O)O)cc1 [ACTARIT] |  | 
> 30 µM | > 30 µM | > 30 µM |  | > 30 µM | > 30 µM | > 30 µM | > 30 µM |  | CC(C(=O)O)c1ccc2oc(-c3ccc(Cl)cc3)nc2c1 (stereo not drawn) [BENOXAPROFEN] |  | 
 |  |  |  |  |  |  |  |  | O=C(O)c1ccccc1 [BENZOIC ACID] |  | > 30 µM
> 30 µM | > 30 µM | > 30 µM | > 30 µM | > 30 µM | > 30 µM | > 30 µM | > 30 µM |  | CC1(C)S[C@@H]2[C@H](NC(=O)C(C(=O)O)c3ccccc3)C(=O)N2[C@H]1C(=O)O (stereo partly drawn) [CARBENICILLIN] |  | 
> 30 µM | > 30 µM | > 30 µM | > 30 µM | > 30 µM | > 30 µM | > 30 µM | > 30 µM | > 30 µM | CC=CC1=C(C(=O)O)N2C(=O)[C@@H](NC(=O)[C@H](N)c3ccc(O)cc3)[C@H]2SC1 [CEFPROZIL] |  | 
> 30 µM | > 30 µM | > 30 µM |  | > 30 µM |  | > 30 µM | > 30 µM |  | CCC(=O)O[C@]1(C(=O)CCl)[C@@H](C)C[C@H]2[C@@H]3CCC4=CC(=O)C=C[C@]4(C)[C@@]3(F)[C@@H](O)C[C@@]21C [CLOBETASOL PROPIONATE] |  | 
> 30 µM | > 30 µM | > 30 µM | > 30 µM | > 30 µM | > 30 µM |  |  |  | CC(C)Cc1ccc([C@H](C)C(=O)O)cc1 [DEXIBUPROFEN] |  | 
 |  |  |  |  |  |  |  |  | CCCCc1oc2ccc(NS(C)(=O)=O)cc2c1C(=O)c1ccc(OCCCN(CCCC)CCCC)cc1 [DRONEDARONE] | 3.31 µM | 
 | > 30 µM | > 30 µM |  |  |  |  |  |  | CNC[C@H](O)c1ccc(O)c(O)c1 [EPINEPHRINE] |  | 
 |  |  |  |  |  |  |  |  | CC1(C)O[C@@H]2C[C@H]3[C@@H]4C[C@H](F)C5=CC(=O)C=C[C@]5(C)[C@@]4(F)[C@@H](O)C[C@]3(C)[C@]2(C(=O)CO)O1 [FLUOCINOLONE ACETONIDE] |  | > 30 µM
 |  |  |  |  |  |  |  |  | N=C(N)N/N=C/c1c(Cl)cccc1Cl [GUANABENZ] |  | > 30 µM
> 30 µM | > 30 µM | > 30 µM | > 30 µM | > 30 µM |  | > 30 µM | > 30 µM |  | CCCCCCCN(CC)CCCC(O)c1ccc(NS(C)(=O)=O)cc1 (stereo not drawn) [IBUTILIDE] |  | 
 |  |  |  |  |  |  |  |  | COc1c2occc2c(OC)c2c(=O)cc(C)oc12 [KHELLIN] | > 30 µM | 
 |  |  |  |  |  |  |  |  | CC(C)[C@@H]1CC[C@@H](C)C[C@H]1O [LEVOMENTHOL] | > 30 µM | 
 |  |  |  |  |  |  |  |  | COC(=O)[C@@H](N)Cc1ccc(O)c(O)c1 [MELEVODOPA] | > 30 µM | 
> 10 µM | > 30 µM | > 10 µM |  | > 10 µM | > 10 µM | > 10 µM | > 10 µM | > 10 µM | CNC(=C[N+](=O)[O-])NCCSCc1csc(CN(C)C)n1 [NIZATIDINE] |  | 
> 30 µM | > 30 µM |  | > 30 µM |  |  | > 30 µM | > 30 µM |  | CN1Cc2c(N)cccc2C(c2ccccc2)C1 (stereo not drawn) [NOMIFENSINE] |  | 
 |  |  |  |  |  |  |  |  | COc1ccc2[nH]c([S+]([O-])Cc3ncc(C)c(OC)c3C)nc2c1 (stereo not drawn) [OMEPRAZOLE] |  | > 30 µM
> 10 µM | > 30 µM | > 10 µM | > 10 µM | > 10 µM | > 10 µM | > 10 µM | > 10 µM | > 10 µM | CCCc1cc(=O)[nH]c(=S)[nH]1 [PROPYLTHIOURACIL] |  | 
> 30 µM | > 30 µM | 20 µM | > 30 µM | > 30 µM |  | > 30 µM | > 30 µM |  | Cn1cc(C(=O)[C@@H]2CCc3nc[nH]c3C2)c2ccccc21 [RAMOSETRON] |  | 
 |  |  |  |  |  |  |  |  | C[N+](C)(C)CCOC(=O)CCC(=O)OCC[N+](C)(C)C [SUXAMETHONIUM] |  | > 30 µM
 |  |  |  |  |  |  |  |  | Cc1ccc(C(=O)c2ccc(CC(=O)O)n2C)cc1 [TOLMETIN] |  | > 30 µM
 |  |  |  |  |  |  |  |  | C[C@]12C=CC(=O)C=C1CC[C@H]1[C@@H]3C[C@@H](O)[C@](O)(C(=O)CO)[C@@]3(C)C[C@H](O)[C@@]12F [TRIAMCINOLONE] |  | > 30 µM
 |  |  |  |  |  |  |  |  | CCC1=C[C@@H]2CN(C1)Cc1c([nH]c3ccccc13)[C@@](C(=O)OC)(c1cc3c(cc1OC)N(C)[C@H]1[C@@](O)(C(=O)OC)[C@H](OC(C)=O)[C@]4(CC)C=CCN5CC[C@]31[C@@H]54)C2 [VINORELBINE] |  | > 30 µM
 | 14 µM |  | > 10 µM | > 10 µM |  | > 10 µM | > 10 µM | > 10 µM | COc1cc(C(=O)NS(=O)(=O)c2ccccc2C)ccc1Cc1cn(C)c2ccc(NC(=O)OC3CCCC3)cc12 [ZAFIRLUKAST] |  | 

Compound | AC50 [1] | AC50 [2] | AC50 [3] | AC50 (Vasopressin V1a receptor) | AC50 [4] | AC50 [5] | AC50 (Vasopressin V2 receptor) | AC50 (B2 bradykinin receptor) | AC50 (Melanocortin receptor 4) | AC50 [6] | AC50 (Estrogen receptor)
CCOc1cc([C@@H](CS(C)(=O)=O)N2C(=O)c3cccc(NC(C)=O)c3C2=O)ccc1OC | > 30 µM | > 30 µM | 4.5 µM | > 30 µM | > 30 µM | > 30 µM |  |  |  |  | 
Cc1nnc(SCC2=C(C(=O)O)N3C(=O)[C@@H](NC(=O)Cn4cnnn4)[C@H]3SC2)s1 [CEFAZOLIN] | > 300 µM | > 300 µM | > 300 µM | > 300 µM | > 300 µM | > 300 µM | > 30 µM | > 30 µM |  |  | 
CC(C)(O/N=C(\C(=O)N[C@@H]1C(=O)N2C(C(=O)[O-])=C(C[n+]3ccccc3)CS[C@H]12)c1csc(N)n1)C(=O)O [CEFTAZIDIME] | > 300 µM | > 300 µM | > 300 µM | > 300 µM | > 300 µM | > 300 µM | > 30 µM | > 30 µM |  |  | 
Cc1cc(C2CCCCC2)n(O)c(=O)c1 [CICLOPIROX] |  | > 30 µM |  |  | > 30 µM |  |  |  |  |  | > 30 µM
Clc1ccc(Cn2c(CN3CCCC3)nc3ccccc32)cc1 [CLEMIZOLE] | > 10 µM | > 30 µM |  | > 30 µM | > 30 µM | > 30 µM |  |  |  |  | 
Cc1onc(-c2c(F)cccc2Cl)c1C(=O)N[C@@H]1C(=O)N2[C@@H]1SC(C)(C)[C@@H]2C(=O)O [FLOXACILLIN] | > 30 µM | > 30 µM | > 30 µM | > 30 µM | > 30 µM | > 30 µM |  |  |  |  | 
S=P(N1CC1)(N1CC1)N1CC1 [THIOTEPA] | > 30 µM | > 30 µM | 1.6 µM | > 30 µM | > 30 µM | > 10 µM |  |  |  |  | 
